According to patent US9815796B2 (Merck Sharp & Dohme Corp., priority 2013, dated 2017):

Assays:
[1] = target: human PDE2A1 (Homo sapiens (Human), UniProt O00408); test: IMAP FP PDE selectivity panel, human PDE2A1; assay type: biochemical; details: Human PDE2, Lab B; read-out: Human PDE2 Ki (nM) - Lab B
Experimental: Selectivity for PDE2, as compared to other PDE families, was assessed using the IMAP® technology. Human PDE 10A2 enzyme was prepared from cytosolic fractions of transiently transfected HEK cells. All other PDE's were GST Tag human enzyme expressed in insect cells and were obtained from BPS Bioscience (San Diego, Calif.): PDE1A (Cat#60010), human PDE2A1 (Cat#60020), PDE3A (Cat#60030), PDE4A1A (Cat#60040), PDE5A1 (Cat#60050), PDE6C (Cat#60060), PDE7A (Cat#60070), PDE8A1 (Cat#60080), PDE9A2 (Cat#60090), PDE11A4 (Cat#60110).
Assays for PDE 1 through 11 were performed in parallel at room temperature in 384-well microtiter plates with an incubation volume of 20.2 μL. Solutions of test compounds were prepared in DMSO and serially diluted with DMSO to yield 30 μL of each of ten solutions differing by 3-fold in concentration, at 32 serial dilutions per plate. […] A Labcyte POD 810 (Labcyte, Sunnyvale, Calif.) was used to dispense 200 nL from each well of the titration plate to make eleven copies of the assay plate for each titration, one copy for each PDE enzyme. A solution of each enzyme (dilution from aliquots, sufficient to produce 20% substrate conversion) and a separate solution of FAM-labeled cAMP or FAM-labeled cGMP from Molecular Devices (Sunnyvale, Calif., product # R7506 or cGMP#R7508), at a final concentration of 50 nM were made in the assay buffer (10 mM Tris HCl, pH 7.2, 10 mM MgCl2, 0.05% NaN3 0.01% Tween-20, and 1 mM DTT). Note that the substrate for PDE2 is 50 nM FAM cAMP containing 1000 nM of cGMP. The enzyme and the substrate were then added to the assay plates in two consecutive additions of 10 μL and then shaken to mix. The reaction was allowed to proceed at room temperature for 60 minutes. A binding solution was then made from the kit components, comprised of 80% Solution A, 20% Solution B and binding reagent at a volume of 1/600 the total binding solution. The enzymatic reaction was stopped by addition of 60 μL of the binding solution to each well of the assay plate. The plates were sealed and shaken for 10 seconds. The plates were incubated at room temperature for one hour, then the parallel and perpendicular fluorescence was measured using a Tecan Genios Pro plate reader (Tecan, Switzerland). The apparent inhibition constants for the compounds against all 11 PDE's was determined from the parallel and perpendicular fluorescent readings as described for PDE10 FP assay using the following apparent KM values for each enzyme and substrate combination: PDE1A (FAM cGMP) 70 nM, human PDE2A1 (FAM cAMP) 10,000 nM, PDE3A (FAM cAMP) 50 nM, PDE4A1A (FAM cAMP) 1500 nM, PDE5A1 (FAM cGMP) 400 nM, PDE6C (FAM cGMP) 700 nM, PDE7A (FAM cAMP) 150 nM, PDE8A1 (FAM cAMP) 50 nM, PDE9A2 (FAM cGMP) 60 nM, PDE10A2 (FAM cAMP) 150 nM, PDE11A4 (FAM cAMP) 1000 nM. The intrinsic PDE2 inhibitory activity of a compound which may be used in accordance with the present invention may be determined by these assays.

[2] = target: Rhesus PDE2A3 (Macaca mulatta, UniProt B3VTJ2); test: PDE2 fluorescence polarization (IMAP FP) inhibition assay, rhesus enzyme; assay type: biochemical, rhesus macaque; details: Rhesus PDE2, Lab B; read-out: Rhesus PDE2 Ki (nM) - Lab B
Rhesus PDE2A3, sequence (B3VTJ2 1-941): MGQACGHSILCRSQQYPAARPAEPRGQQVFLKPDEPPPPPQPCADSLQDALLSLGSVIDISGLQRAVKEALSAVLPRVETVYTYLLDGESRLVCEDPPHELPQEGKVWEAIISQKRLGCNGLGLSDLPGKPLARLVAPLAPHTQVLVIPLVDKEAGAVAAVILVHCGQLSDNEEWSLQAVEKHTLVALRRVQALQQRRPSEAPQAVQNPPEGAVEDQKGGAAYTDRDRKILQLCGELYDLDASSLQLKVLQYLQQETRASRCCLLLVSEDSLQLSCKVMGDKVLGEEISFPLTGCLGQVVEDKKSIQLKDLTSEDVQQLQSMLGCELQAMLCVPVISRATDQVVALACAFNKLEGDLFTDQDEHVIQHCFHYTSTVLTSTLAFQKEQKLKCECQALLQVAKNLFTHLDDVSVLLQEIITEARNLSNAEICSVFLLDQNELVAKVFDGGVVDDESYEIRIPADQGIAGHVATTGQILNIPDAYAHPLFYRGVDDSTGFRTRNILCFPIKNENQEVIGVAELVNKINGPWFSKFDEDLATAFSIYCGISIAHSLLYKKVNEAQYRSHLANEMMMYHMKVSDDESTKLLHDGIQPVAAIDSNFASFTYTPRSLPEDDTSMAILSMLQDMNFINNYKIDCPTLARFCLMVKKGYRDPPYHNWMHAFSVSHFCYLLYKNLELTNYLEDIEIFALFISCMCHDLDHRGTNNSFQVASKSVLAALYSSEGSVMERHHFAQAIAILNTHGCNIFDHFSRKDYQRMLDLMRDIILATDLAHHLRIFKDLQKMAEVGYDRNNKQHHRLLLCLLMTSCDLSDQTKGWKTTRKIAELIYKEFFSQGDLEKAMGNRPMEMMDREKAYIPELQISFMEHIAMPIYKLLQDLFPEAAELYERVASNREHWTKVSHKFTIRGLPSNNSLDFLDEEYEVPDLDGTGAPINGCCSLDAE
Summary of the method: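 IMAP FP (mP from parallel and perpendicular fluorescence against substrate-only control) was read ≥1 h after adding binding reagent. The preceding 60 min room-temperature reaction contained FAM-cAMP (50 nM) and cGMP (1 uM) in pH 7.2 Tris buffer with MgCl2 and DTT. Enzyme was supernatant of sonicated AD293 cells expressing rhesus PDE2A3; compounds were 3-fold titrated, DMSO 1% final.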

human PDE2A1, sequence (O00408 other isoform, or with tags, fused parts or gaps): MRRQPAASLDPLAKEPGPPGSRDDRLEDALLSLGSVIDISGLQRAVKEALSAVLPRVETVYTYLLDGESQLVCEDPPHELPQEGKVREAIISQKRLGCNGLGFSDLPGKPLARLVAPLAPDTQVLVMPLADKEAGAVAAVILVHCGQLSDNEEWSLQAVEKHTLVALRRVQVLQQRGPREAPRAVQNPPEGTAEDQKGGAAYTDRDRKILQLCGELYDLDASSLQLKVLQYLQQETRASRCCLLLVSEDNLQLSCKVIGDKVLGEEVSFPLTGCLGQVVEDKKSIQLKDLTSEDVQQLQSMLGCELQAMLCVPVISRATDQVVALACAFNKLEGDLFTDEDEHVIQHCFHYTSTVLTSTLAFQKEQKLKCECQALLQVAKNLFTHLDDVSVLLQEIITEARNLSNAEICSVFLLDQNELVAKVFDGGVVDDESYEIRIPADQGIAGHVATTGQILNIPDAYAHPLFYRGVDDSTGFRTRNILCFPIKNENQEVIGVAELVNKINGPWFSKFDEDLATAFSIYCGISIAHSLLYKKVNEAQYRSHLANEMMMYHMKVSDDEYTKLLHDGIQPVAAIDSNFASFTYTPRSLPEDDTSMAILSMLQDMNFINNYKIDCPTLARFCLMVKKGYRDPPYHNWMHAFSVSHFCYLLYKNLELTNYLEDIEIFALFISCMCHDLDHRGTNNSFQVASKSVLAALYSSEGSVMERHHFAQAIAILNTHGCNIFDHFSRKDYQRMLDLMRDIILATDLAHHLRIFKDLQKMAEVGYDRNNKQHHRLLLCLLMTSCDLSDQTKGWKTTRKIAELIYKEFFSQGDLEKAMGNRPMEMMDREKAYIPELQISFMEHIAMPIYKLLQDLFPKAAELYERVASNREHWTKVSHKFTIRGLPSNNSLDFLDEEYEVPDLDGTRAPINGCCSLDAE

Structure (SMILES)	Ki [1] [nM]	Ki [2] [nM]
Cc1nc(C(=O)N[C@]2(c3ccc(C(C)C)cc3)C[C@H]2C)cc(=O)[nH]1 (single isomer, unassigned) [Example 664, 2-methyl-N-{2-methyl-1-[4-(1-methylethyl)phenyl]cyclopropyl}-6-oxo-1,6-dihydropyrimidine-4-carboxamide]	~1570	
Cc1nc(C(=O)N[C@]2(c3ccc(C(C)C)cc3)C[C@H]2C)cc(=O)[nH]1 (single isomer, unassigned) [Example 665, 2-methyl-N-{2-methyl-1-[4-(1-methylethyl)phenyl]cyclopropyl}-6-oxo-1,6-dihydropyrimidine-4-carboxamide]	4.95	
CCC(C)(NC(=O)c1cc(=O)[nH]c(C)n1)c1ccc(C(F)(F)F)cc1 (single isomer, unassigned) [Example 668, (S)- or (R)-2-methyl-N-{1-methyl-1-[4-(trifluoromethyl)phenyl]propyl}-6-oxo-1,6-dihydropyrimidine-4-carboxamide]	67	
CCC(C)(NC(=O)c1cc(=O)[nH]c(C)n1)c1ccc(C(F)(F)F)cc1 (single isomer, unassigned) [Example 669, (R)- or (S)-2-methyl-N-{1-methyl-1-[4-(trifluoromethyl)phenyl]propyl}-6-oxo-1,6-dihydropyrimidine-4-carboxamide]	15	
Cc1nc(C(=O)N[C@]2(c3ccc(C(F)(F)F)cc3)C[C@@H]2C)cc(=O)[nH]1 (single isomer, unassigned) [Example 670, 2-methyl-N-{2-methyl-1-[4-(trifluoromethyl)phenyl]cyclopropyl}-6-oxo-1,6-dihydropyrimidine-4-carboxamide]	28	
CC(C)(C)C(NC(=O)c1cc(=O)[nH]c(-c2ncco2)n1)c1ccc(C(F)(F)F)cc1 (single isomer, unassigned) [Example 682, (R)- or (S)-N-(2,2-dimethyl-1-(4-(trifluoromethyl)phenyl)propyl)-2-(oxazol-2-yl)-6-oxo-1,6-dihydropyrimidine-4-carboxamide]	48	
CC(C)(C)C(NC(=O)c1cc(=O)[nH]c(-c2ncco2)n1)c1ccc(C(F)(F)F)cc1 (single isomer, unassigned) [Example 683, (S)- or (R)-N-(2,2-dimethyl-1-(4-(trifluoromethyl)phenyl)propyl)-2-(oxazol-2-yl)-6-oxo-1,6-dihydropyrimidine-4-carboxamide]	> 2960	
COc1ccc(C(C)(C)c2nc(C(=O)N[C@@H](c3ccc(C(F)(F)F)cc3)C(C)(C)C)cc(=O)[nH]2)cc1 [Example 456, N-{(1R)-2,2-dimethyl-1-[4-(trifluoromethyl)phenyl]propyl}-2-[1-(4-methoxyphenyl)-1-methylethyl]-6-oxo-1,6-dihydropyrimidine-4-carboxamide]		98
C[C@H](NC(=O)c1cc(=O)[nH]c(-c2ccccc2)n1)c1ccc([N+](=O)[O-])cc1 [Example 458, N-[(1S)-1-(4-nitrophenyl)ethyl]-6-oxo-2-phenyl-1,6-dihydropyrimidine-4-carboxamide]		8130
COc1ccc(C(C)(C)NC(=O)c2cc(=O)[nH]c(-c3ccccc3)n2)cc1 [Example 460, N-[1-(4-methoxyphenyl)-1-methylethyl]-6-oxo-2-phenyl-1,6-dihydropyrimidine-4-carboxamide]		371
COc1ccc(C(C)(C)c2nc(C(=O)N[C@@H](c3ccc(SC(F)(F)F)cc3)C(C)(C)C)cc(=O)[nH]2)cc1 [Example 488, N-[(1R)-2,2-dimethyl-1-{4-[(trifluoromethyl)sulfanyl]phenyl}propyl]-2-[1-(4-methoxyphenyl)-1-methylethyl]-6-oxo-1,6-dihydropyrimidine-4-carboxamide]		116
Cc1nc(C(=O)N[C@@H](c2ccc(C(F)(F)F)c([N+](=O)[O-])c2)C(C)(C)C)cc(=O)[nH]1 [Example 531, N-{(1R)-2,2-dimethyl-1-[3-nitro-4-(trifluoromethyl)phenyl]propyl}-2-methyl-6-oxo-1,6-dihydropyrimidine-4-carboxamide]		32
C[C@@H](NC(=O)c1cc(=O)[nH]c(-c2nccs2)n1)c1ccc(C(F)(F)F)cc1 [Example 674, (R)-6-oxo-2-(thiazol-2-yl)-N-(1-(4-(trifluoromethyl)phenyl)ethyl)-1,6-dihydropyrimidine-4-carboxamide]		583
Cc1nc(C(=O)NC(C)(C)c2ccc(S(F)(F)(F)(F)F)cc2)cc(=O)[nH]1 [Example 677, 2-methyl-N-{1-methyl-1-[4-(pentafluoro-λ^6-sulfanyl)phenyl]ethyl}-6-oxo-1,6-dihydropyrimidine-4-carboxamide]		129
CC(C)(NC(=O)c1cc(=O)[nH]c(-c2ncccn2)n1)c1ccc(S(F)(F)(F)(F)F)cc1 [Example 678, N-{1-methyl-1-[4-(pentafluoro-λ^6-sulfanyl)phenyl]ethyl}-6-oxo-1,6-dihydro-2,2′-bipyrimidine-4-carboxamide]		501

The remaining lines, values ahead:

Ki [1] [nM]	Ki [2] [nM]	Structure (SMILES)
14		Cc1nc(C(=O)N[C@]2(c3ccc(C(F)(F)F)cc3)C[C@@H]2C)cc(=O)[nH]1 (single isomer, unassigned) [Example 671, 2-methyl-N-{2-methyl-1-[4-(trifluoromethyl)phenyl)cyclopropyl}-6-oxo-1,6-dihydropyrimidine-4-carboxamide]
> 2960		Cc1nc(C(=O)NC(C)c2ccc(C(F)(F)C(F)(F)F)cc2)cc(=O)[nH]1 (single isomer, unassigned) [Example 684, (S)- or (R)-2-methyl-6-oxo-N-(1-(4-(perfluoroethyl)phenyl)ethyl)-1,6-dihydropyrimidine-4-carboxamide]
> 2960		Cc1nc(C(=O)NC(C)c2ccc(C3(C(F)(F)F)CC3)cc2)cc(=O)[nH]1 (single isomer, unassigned) [Example 686, (S)- or (R)-2-methyl-6-oxo-N-(1-(4-(1-(trifluoromethyl)cyclopropyl)phenyl)-ethyl)-1,6-dihydropyrimidine-4-carboxamide]
	224	C[C@@H](NC(=O)c1cc(=O)[nH]c(-c2ccccc2)n1)c1ccc([N+](=O)[O-])cc1 [Example 459, N-[(1R)-1-(4-nitrophenyl)ethyl]-6-oxo-2-phenyl-1,6-dihydropyrimidine-4-carboxamide]
	115	COc1ccc(C(C)(C)c2nc(C(=O)N[C@@H](c3ccc(C(F)(F)F)c(F)c3)C3CC3)cc(=O)[nH]2)cc1 [Example 499, N-{(R)-cyclopropyl[3-fluoro-4-(trifluoromethyl)phenyl]methyl}-2-[1-(4-methoxyphenyl)-1-methylethyl]-6-oxo-1,6-dihydropyrimidine-4-carboxamide]
	111	CC[C@@H](NC(=O)c1cc(=O)[nH]c(C(C)(C)c2ccc(OC)cc2)n1)c1ccc(C(F)(F)F)c(F)c1 [Example 503, N-{(1R)-1-[3-fluoro-4-(trifluoromethyl)phenyl]propyl}-2-[1-(4-methoxyphenyl)-1-methylethyl]-6-oxo-1,6-dihydropyrimidine-4-carboxamide]
	112	Cc1nc(C(=O)N[C@H](C)c2cc(F)c(C(F)(F)F)cc2F)cc(=O)[nH]1 [Example 616]
	90	CC(C)(NC(=O)c1cc(=O)[nH]c(-c2ccccc2)n1)c1ccc(S(F)(F)(F)(F)F)cc1 [Example 679, N-{1-methyl-1-[4-(pentafluoro-λ^6-sulfanyl)phenyl]ethyl}-6-oxo-2-phenyl-1,6-dihydropyrimidine-4-carboxamide]
